± gives the expanded uncertainty stated by the source.
Columns and labels:
[1] = Molar enthalpy of transition or fusion; conditions: DSC
[2] = DTA

Molar enthalpy of transition or fusion ([1]; Crystal 1)	Molar enthalpy of transition or fusion ([1]; Crystal 2)	Molar enthalpy of transition or fusion ([1]; Crystal 3)	Triple point temperature ([2]; Crystal 1)	Triple point temperature ([2]; Crystal 2)	Triple point temperature ([2]; Crystal 3)	Molar enthalpy of transition or fusion ([1]; Crystal 4)	Triple point temperature ([2]; Crystal 4)	Structure (SMILES)
39.7 ± 0.813 kcal/mol	2.02 ± 0.0574 kcal/mol	0.504 ± 0.0287 kcal/mol	357.3 ± 0.1 K	348.6 ± 0.1 K	344.6 ± 0.1 K			CCCCCCCCCCCCCCCCCCCCCCCCCCCCCCCCCCCCCCCCCC [dotetracontane]
24.5 ± 0.502 kcal/mol	6.82 ± 0.153 kcal/mol	3.59 ± 0.0884 kcal/mol	349.2 ± 0.1 K	347.1 ± 0.1 K	346.8 ± 0.1 K	0.112 ± 0.0208 kcal/mol	343.6 ± 0.1 K	CCCCCCCCCCCCCCCCCCCCCCCCCCCCCCCCCCCC [hexatriacontane]
34.4 ± 0.717 kcal/mol	2.05 ± 0.0574 kcal/mol	0.601 ± 0.0311 kcal/mol	354.6 ± 0.1 K	347.7 ± 0.1 K	345 ± 0.1 K			CCCCCCCCCCCCCCCCCCCCCCCCCCCCCCCCCCCCCCCC [tetracontane]
22.9 ± 0.478 kcal/mol	11.2 ± 0.239 kcal/mol	0.0968 ± 0.0203 kcal/mol	346.1 ± 0.1 K	343.5 ± 0.1 K	342.8 ± 0.1 K			CCCCCCCCCCCCCCCCCCCCCCCCCCCCCCCCCC [tetratriacontane]
